{"source": "ChEMBL document CHEMBL1212697", "about": "“High-content single-cell drug screening with phosphospecific flow cytometry” (Nat Chem Biol, 2008)", "key": {"[1]": {"experiment": "Inhibition of JAK-mediated IL4-induced Stat5 phosphorylation in BALB/c mouse B cells by Phospho-Flow cytometry", "format": "cell-based"}, "[2]": {"experiment": "Inhibition of JAK-mediated IL6-induced Stat3 phosphorylation in BALB/c mouse CD11b-hi neutrophils by Phospho-Flow cytometry"}, "[3]": {"experiment": "Inhibition of JAK-mediated interferon-gamma-induced Stat1 phosphorylation in BALB/c mouse CD4+ T cells by Phospho-Flow cytometry", "format": "cell-based", "details": "T-cell"}, "[4]": {"experiment": "Inhibition of JAK-mediated IL4-induced Stat5 phosphorylation in BALB/c mouse CD11b-int macrophages by Phospho-Flow cytometry"}, "[5]": {"experiment": "Inhibition of JAK-mediated IL4-induced Stat5 phosphorylation in BALB/c mouse CD11b-hi neutrophils by Phospho-Flow cytometry"}, "[6]": {"experiment": "Inhibition of JAK-mediated IL15-induced Stat5 phosphorylation in BALB/c mouse CD8+ T cells by Phospho-Flow cytometry", "format": "cell-based", "details": "T-cell"}, "[7]": {"experiment": "Inhibition of JAK-mediated IL7-induced Stat5 phosphorylation in BALB/c mouse CD11b-int macrophages by Phospho-Flow cytometry"}, "[8]": {"experiment": "Inhibition of JAK-mediated IL7-induced Stat5 phosphorylation in BALB/c mouse CD4+ T cells by Phospho-Flow cytometry", "format": "cell-based", "details": "T-cell"}, "[9]": {"experiment": "Inhibition of JAK-mediated IL4-induced Stat6 phosphorylation in BALB/c mouse CD11b-int macrophages by Phospho-Flow cytometry"}, "[10]": {"experiment": "Inhibition of JAK-mediated IL15-induced Stat5 phosphorylation in BALB/c mouse CD4+ T cells by Phospho-Flow cytometry", "format": "cell-based", "details": "T-cell"}, "[11]": {"experiment": "Inhibition of JAK-mediated IL6-induced Stat3 phosphorylation in BALB/c mouse B cells by Phospho-Flow cytometry", "format": "cell-based"}, "[12]": {"experiment": "Inhibition of JAK-mediated IL6-induced Stat1 phosphorylation in BALB/c mouse CD4+ T cells by Phospho-Flow cytometry", "format": "cell-based", "details": "T-cell"}, "[13]": {"experiment": "Inhibition of JAK-mediated IL6-induced Stat3 phosphorylation in BALB/c mouse CD4+ T cells by Phospho-Flow cytometry", "format": "cell-based", "details": "T-cell"}, "[14]": {"experiment": "Inhibition of JAK-mediated IL7-induced Stat5 phosphorylation in BALB/c mouse B cells by Phospho-Flow cytometry", "format": "cell-based"}, "[15]": {"experiment": "Inhibition of JAK-mediated IL6-induced Stat3 phosphorylation in BALB/c mouse CD11b-int macrophages by Phospho-Flow cytometry"}, "[16]": {"experiment": "Inhibition of JAK-mediated IL6-induced Stat3 phosphorylation in BALB/c mouse CD8+ T cells by Phospho-Flow cytometry", "format": "cell-based", "details": "T-cell"}, "[17]": {"experiment": "Inhibition of JAK-mediated IL10-induced Stat3 phosphorylation in BALB/c mouse CD11b-int macrophages by Phospho-Flow cytometry"}, "[18]": {"experiment": "Inhibition of JAK-mediated IL7-induced Stat5 phosphorylation in BALB/c mouse CD8+ T cells by Phospho-Flow cytometry", "format": "cell-based", "details": "T-cell"}, "[19]": {"experiment": "Inhibition of JAK-mediated interferon-gamma-induced Stat1 phosphorylation in BALB/c mouse B cells by Phospho-Flow cytometry", "format": "cell-based"}, "[20]": {"experiment": "Inhibition of JAK-mediated IL6-induced Stat1 phosphorylation in BALB/c mouse B cells by Phospho-Flow cytometry", "format": "cell-based"}, "[21]": {"experiment": "Inhibition of JAK-mediated IL15-induced Stat5 phosphorylation in BALB/c mouse B cells by Phospho-Flow cytometry", "format": "cell-based"}, "[22]": {"experiment": "Inhibition of JAK-mediated IL10-induced Stat3 phosphorylation in BALB/c mouse B cells by Phospho-Flow cytometry", "format": "cell-based"}, "[23]": {"experiment": "Inhibition of JAK-mediated interferon-gamma-induced Stat1 phosphorylation in BALB/c mouse […] T cells by Phospho-Flow cytometry", "format": "cell-based", "details": "T-cell"}, "[24]": {"experiment": "Inhibition of JAK-mediated IL15-induced Stat5 phosphorylation in BALB/c mouse CD11b-hi neutrophils by Phospho-Flow cytometry"}, "[25]": {"experiment": "Inhibition of JAK-mediated IL6-induced Stat1 phosphorylation in BALB/c mouse CD8+ T cells by Phospho-Flow cytometry", "format": "cell-based", "details": "T-cell"}, "[26]": {"experiment": "Inhibition of JAK-mediated IL10-induced Stat3 phosphorylation in BALB/c mouse CD4+ T cells by Phospho-Flow cytometry", "format": "cell-based", "details": "T-cell"}, "[27]": {"experiment": "Inhibition of JAK-mediated IL4-induced Stat6 phosphorylation in BALB/c mouse CD4+ T cells by Phospho-Flow cytometry", "format": "cell-based", "details": "T-cell"}, "[28]": {"experiment": "Inhibition of JAK-mediated IL10-induced Stat3 phosphorylation in BALB/c mouse CD11b-hi neutrophils by Phospho-Flow cytometry"}, "[29]": {"experiment": "Inhibition of JAK-mediated IL6-induced Stat1 phosphorylation in BALB/c mouse CD11b-int macrophages by Phospho-Flow cytometry"}, "[30]": {"experiment": "Inhibition of JAK-mediated IL4-induced Stat5 phosphorylation in BALB/c mouse CD8+ T cells by Phospho-Flow cytometry", "format": "cell-based", "details": "T-cell"}, "[31]": {"experiment": "Inhibition of JAK-mediated IL15-induced Stat5 phosphorylation in BALB/c mouse CD11b-int macrophages by Phospho-Flow cytometry"}, "[32]": {"experiment": "Inhibition of JAK-mediated interferon-gamma-induced Stat1 phosphorylation in BALB/c mouse CD11b-int macrophages by Phospho-Flow cytometry"}, "[33]": {"experiment": "Inhibition of JAK-mediated IL7-induced Stat5 phosphorylation in BALB/c mouse CD11b-hi neutrophils by Phospho-Flow cytometry"}, "[34]": {"experiment": "Inhibition of JAK-mediated IL6-induced Stat1 phosphorylation in BALB/c mouse CD11b-hi neutrophils by Phospho-Flow cytometry"}, "[35]": {"experiment": "Inhibition of JAK-mediated interferon-gamma-induced Stat1 phosphorylation in BALB/c mouse CD11b-hi neutrophils by Phospho-Flow cytometry"}, "[36]": {"experiment": "Inhibition of JAK-mediated IL4-induced Stat5 phosphorylation in BALB/c mouse CD4+ T cells by Phospho-Flow cytometry", "format": "cell-based", "details": "T-cell"}, "[37]": {"experiment": "Inhibition of JAK-mediated IL10-induced Stat3 phosphorylation in BALB/c mouse CD8+ T cells by Phospho-Flow cytometry", "format": "cell-based", "details": "T-cell"}, "[38]": {"experiment": "Inhibition of JAK-mediated IL4-induced Stat6 phosphorylation in BALB/c mouse CD8+ T cells by Phospho-Flow cytometry", "format": "cell-based", "details": "T-cell"}, "[39]": {"molecular_target": "T1, Janus Kinase (JAK) (Homo sapiens) (UniProt P52333+P23458+O60674+P29597)", "experiment": "Inhibition of JAK-mediated interferon-gamma-induced Stat1 phosphorylation in human U937 cells by Phospho-Flow cytometry at 20 uM", "format": "cell-based", "details": "U-937"}, "[40]": {"molecular_target": "T2, MAP kinase p38 (Homo sapiens, UniProt O15264+Q15759+Q16539+P53778)", "experiment": "Inhibition of anisomycin-induced p38 phosphorylation in human U937 cells by Phospho-Flow cytometry at 20 uM", "format": "cell-based", "details": "U-937"}, "[41]": {"molecular_target": "T1, Janus Kinase (JAK) (Homo sapiens)", "experiment": "Inhibition of JAK-mediated GM-CSF-induced Stat5 phosphorylation in human U937 cells by Phospho-Flow cytometry at 20 uM", "format": "cell-based", "details": "U-937"}, "[42]": {"molecular_target": "T2, MAP kinase p38", "experiment": "Inhibition of anisomycin-induced p38 phosphorylation in human U937 cells by Phospho-Flow cytometry", "format": "cell-based", "details": "u-937"}}}
{"smiles": "C=CC(=O)c1ccc2ccccc2c1", "values": [{"measurement": "IC50", "setting": "[1]", "value": "< 20", "unit": "µM"}, {"measurement": "IC50", "setting": "[2]", "value": "< 20", "unit": "µM"}, {"measurement": "IC50", "setting": "[3]", "value": "< 20", "unit": "µM"}, {"measurement": "IC50", "setting": "[4]", "value": "< 20", "unit": "µM"}, {"measurement": "IC50", "setting": "[5]", "value": "< 20", "unit": "µM"}, {"measurement": "IC50", "setting": "[6]", "value": "< 20", "unit": "µM"}, {"measurement": "IC50", "setting": "[7]", "value": "< 20", "unit": "µM"}, {"measurement": "IC50", "setting": "[8]", "value": "< 20", "unit": "µM"}, {"measurement": "IC50", "setting": "[9]", "value": "< 20", "unit": "µM"}, {"measurement": "IC50", "setting": "[10]", "value": "< 20", "unit": "µM"}, {"measurement": "IC50", "setting": "[11]", "value": "< 20", "unit": "µM"}, {"measurement": "IC50", "setting": "[12]", "value": "< 20", "unit": "µM"}, {"measurement": "IC50", "setting": "[13]", "value": "< 20", "unit": "µM"}, {"measurement": "IC50", "setting": "[14]", "value": "< 20", "unit": "µM"}, {"measurement": "IC50", "setting": "[15]", "value": "< 20", "unit": "µM"}, {"measurement": "IC50", "setting": "[16]", "value": "< 20", "unit": "µM"}, {"measurement": "IC50", "setting": "[17]", "value": "< 20", "unit": "µM"}, {"measurement": "IC50", "setting": "[18]", "value": "< 20", "unit": "µM"}, {"measurement": "IC50", "setting": "[19]", "value": "< 20", "unit": "µM"}, {"measurement": "IC50", "setting": "[20]", "value": "< 20", "unit": "µM"}, {"measurement": "IC50", "setting": "[21]", "value": "< 20", "unit": "µM"}, {"measurement": "IC50", "setting": "[22]", "value": "< 20", "unit": "µM"}, {"measurement": "IC50", "setting": "[23]", "value": "< 20", "unit": "µM"}, {"measurement": "IC50", "setting": "[24]", "value": "< 20", "unit": "µM"}, {"measurement": "IC50", "setting": "[25]", "value": "< 20", "unit": "µM"}, {"measurement": "IC50", "setting": "[26]", "value": "< 20", "unit": "µM"}, {"measurement": "IC50", "setting": "[27]", "value": "< 20", "unit": "µM"}, {"measurement": "IC50", "setting": "[28]", "value": "< 20", "unit": "µM"}, {"measurement": "IC50", "setting": "[29]", "value": "< 20", "unit": "µM"}, {"measurement": "IC50", "setting": "[30]", "value": "< 20", "unit": "µM"}, {"measurement": "IC50", "setting": "[31]", "value": "< 20", "unit": "µM"}, {"measurement": "IC50", "setting": "[32]", "value": "< 20", "unit": "µM"}, {"measurement": "IC50", "setting": "[33]", "value": "< 20", "unit": "µM"}, {"measurement": "IC50", "setting": "[34]", "value": "< 20", "unit": "µM"}, {"measurement": "IC50", "setting": "[35]", "value": "< 20", "unit": "µM"}, {"measurement": "IC50", "setting": "[36]", "value": "< 20", "unit": "µM"}, {"measurement": "IC50", "setting": "[37]", "value": "< 20", "unit": "µM"}, {"measurement": "IC50", "setting": "[38]", "value": "< 20", "unit": "µM"}]}
{"smiles": "COC1=C[C@]23CCCN2CCc2cc4c(cc2[C@@H]3[C@@H]1O)OCO4", "note": "[CEPHALOTAXINE]", "values": [{"measurement": "inhibition", "setting": "[39]", "value": "> 65", "unit": "%"}, {"measurement": "inhibition", "setting": "[40]", "value": 25, "unit": "%"}, {"measurement": "inhibition", "setting": "[41]", "value": 25, "unit": "%"}, {"measurement": "IC50", "setting": "[42]", "value": 200, "unit": "nM"}]}
